The target of test [1] is T1, FimH (Escherichia coli, UniProt P08191). The test can be described thus: co-crystal structure, […] Å. The class given is binding.
Target sequence in this assay (P08191 22-179): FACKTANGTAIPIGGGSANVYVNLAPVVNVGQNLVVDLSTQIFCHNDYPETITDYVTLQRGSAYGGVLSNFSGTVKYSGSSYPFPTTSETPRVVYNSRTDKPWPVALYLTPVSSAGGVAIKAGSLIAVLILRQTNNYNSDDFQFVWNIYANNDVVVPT
Test [2] concerns the target T1, FimH. The test can be described thus: inhibition of FimH-dependent bacterial adhesion to […] bladder cells, fimH-negative control. The class given is cell-based. More on the design: J96 FimH expressed from plasmid pMMB66 on type 1 pili of AAEC185(pUT2002) E. coli.
Target sequence in this assay (P08191 22-300): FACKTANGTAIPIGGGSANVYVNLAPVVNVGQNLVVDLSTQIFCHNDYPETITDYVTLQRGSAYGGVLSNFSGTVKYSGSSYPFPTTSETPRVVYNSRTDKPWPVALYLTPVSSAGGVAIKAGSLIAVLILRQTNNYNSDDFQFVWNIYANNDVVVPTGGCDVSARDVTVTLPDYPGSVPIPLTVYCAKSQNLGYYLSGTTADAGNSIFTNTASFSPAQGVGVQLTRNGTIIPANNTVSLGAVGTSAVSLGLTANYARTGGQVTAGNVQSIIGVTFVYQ
In test [3] the target is T1, FimH. Kind of test: SPR, competition in solution with immobilized Fab 1C10. It is filed as binding. Background: Surface plasmon resonance follows binding to a sensor surface in real time, without labels.
Target sequence in this assay (P08191 22-179): as the sequence (P08191 22-179) above

pKd: −log10 of the molar value. Read-outs that look alike come from different tables or passages of the source.

This is an account of results in paper PMC2323111, “Intervening with Urinary Tract Infections Using Anti-Adhesives Based on the Crystal Structure of the FimH–Oligomannose-3 Complex” (PLoS ONE, 2008).

By pKd is commonly meant the negative decadic logarithm of the Kd, by convention in mol/L.

In the case of `CC(=O)N[C@H]1[C@H](O[C@H]2[C@H](O)[C@@H](NC(C)=O)C(O)O[C@@H]2CO)O[C@H](CO)[C@@H](O[C@@H]2O[C@H](CO[C@H]3O[C@H](CO)[C@@H](O)[C@H](O)[C@@H]3O)[C@@H](O)[C@H](O[C@H]3O[C@H](CO)[C@@H](O)[C@H](O)[C@@H]3O)[C@@H]2O)[C@@H]1O` (stereo partly shown) [oligomannose-3], on FimH [1], the “co-crystal structure, 2.1 Å” value is “Oligomannose-3 has been crystallized in complex with the FimH RBD”.

Take `CCCCCCCO[C@H]1O[C@H](CO)[C@@H](O)[C@H](O)[C@@H]1O` [HM, heptyl α-D-mannose]: the “inhibition of FimH-dependent bacterial adhesion to 5637 bladder cells, fimH-nega” value against FimH [2] was “HM is more efficient at reducing FimH-mediated bacterial adherence, in accordance with its higher affinity for FimH”.

In the case of `CO[C@@H]1O[C@H](CO)[C@@H](O)[C@H](O[C@H]2O[C@H](CO)[C@@H](O)[C@H](O)[C@@H]2O)[C@@H]1O` [Manα1,3ManβOMe], at FimH [3] (read-out: Kd), the pKd is 6.95.

On FimH [3], `OC[C@H]1O[C@H](O[C@H]2[C@H](O)[C@@H](CO)OC(O)[C@H]2O)[C@@H](O)[C@@H](O)[C@@H]1O` (mixture of isomers) [Manα1,3Man] gave a pKd of 6.55.
